The record followed here is BindingDB's records for doi:10.7270/Q2CN728N (Nmmlsc, 2008).

Structures can show the parent of a compound that is named as a salt.

The first test has as its target T1, Bcl-2-related protein A1 (Homo sapiens, UniProt Q16548).
T1 sequence (Q16548 whole entry): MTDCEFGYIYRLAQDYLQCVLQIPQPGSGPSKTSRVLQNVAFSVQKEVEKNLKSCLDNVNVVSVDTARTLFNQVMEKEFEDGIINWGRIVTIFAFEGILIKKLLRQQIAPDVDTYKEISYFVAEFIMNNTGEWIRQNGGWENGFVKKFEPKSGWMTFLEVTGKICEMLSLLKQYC
Put plainly: inhibitors of Bim binding to Bfl-1, dose response, biochemical, multiplexed, bead-based flow cytometry (AID 1320). As to conditions: inactive by the depositor's call; pH 7.4; 4 °C. In general terms: In flow cytometry, cells or beads pass a laser one at a time.
Broadly, the EC50 is the concentration that produces a half-maximal response. Lower therefore signals a more potent agent. With `COc1ccc(N2C(=O)C(Cl)=C(Oc3cccc(OC)c3)C2=O)cc1` [3-chloro-4-(3-methoxyphenoxy)-1-(4-methoxyphenyl)-1H-pyrrole-2,5-dione], the EC50 came to 0.68 µM. That is a sub-micromolar value.

`CCOc1cc(S(=O)(=O)Nc2ccccn2)ccc1F` [3-ethoxy-4-fluoro-N-(2-pyridinyl)benzenesulfonamide] displayed a 50% effective concentration (EC50) of 44.5 µM.

Compound `Cc1nc2ncccn2c1-c1csc(Nc2ccccc2)n1` [4-(2-methyl-3-imidazo[1,2-a]pyrimidinyl)-N-phenyl-2-thiazolamine] came in with an EC50 of 11.7 µM. On the same count and under the same terms, with `CNc1ccc(Br)cc(C(=O)/C=C/c2cccc(OC)c2)c1=O` [4-bromo-2-[3-(3-methoxyphenyl)acryloyl]-7-(methylamino)-2,4,6-cycloheptatrien-1-one] the figure was 17.5 µM; with `Cc1cc(C)nc(SCc2cc(=O)c(OC(=O)c3ccc(Cl)c([N+](=O)[O-])c3)co2)n1` [4-chloro-3-nitrobenzoic acid [6-[[(4,6-dimethyl-2-pyrimidinyl)thio]methyl]-4-oxo-3-pyranyl] ester], 19.7 µM. Same read-out and setting: the value for `COc1cc(/N=c2/ssnc2Cl)cc(OC)c1` [4-chloro-N-(3,5-dimethoxyphenyl)-5-dithiazolimine] was 15 µM; that for `CCOC(=O)c1sc(N)c(C(=O)Nc2ccccc2OC)c1C` [5-amino-4-[(2-methoxyanilino)-oxomethyl]-3-methyl-2-thiophenecarboxylic acid ethyl ester] was 5.66 µM. Same read-out and setting: with `O=C(N[N-][CH+]c1ccc(-c2ccccc2[N+](=O)[O-])o1)c1cncc(Br)c1` [5-bromo-N-[[5-(2-nitrophenyl)furan-2-yl]methylideneamino]pyridine-3-carboxamide] the figure was 33.6 µM.

On to `O=C1C(=Cc2ccco2)NC(=S)N1c1ccccc1` [(5E)-5-(furan-2-ylmethylidene)-3-phenyl-2-sulfanylideneimidazolidin-4-one], for which the EC50 came to 14.8 µM.

As for `CC(C)CN1C(=O)/C(=C/c2ccco2)NC1=S` [(5Z)-5-(2-furanylmethylidene)-3-(2-methylpropyl)-2-sulfanylidene-4-imidazolidinone], the 50% effective concentration (EC50) is 11 µM. Still for that read-out and setting: with `Cc1ccc(-c2ccc(/C=C3\SC(N4CCOCC4)=NC3=O)o2)cc1` [(5Z)-5-[[5-(4-methylphenyl)-2-furanyl]methylidene]-2-(4-morpholinyl)-4-thiazolone] the figure was 20 µM; with `COc1cc(C2Nc3cccc4cccc(c34)N2)ccc1OC(C)=O` [Acetic acid 4-(2,3-dihydro-1H-perimidin-2-yl)-2-methoxy-phenyl ester], 11.1 µM; with `COC(=O)CSc1ncnc2c1sc1nc(-c3ccco3)c3c(c12)CC(C)(C)OC3` [MLS000039339], 12.4 µM.

In the case of `C/C(=C\c1ccco1)C1Nc2cccc3cccc(c23)N1` [MLS000055728], the response was half-maximal at 15.8 µM (EC50). This EC50 and that of the compound before are within 1.5-fold of each other. `CCOc1cc(C2Nc3cccc4cccc(c34)N2)ccc1O` [MLS000068595] yielded an EC50 of 37.5 µM. Still for that read-out and setting: with `COc1ccc(-n2c(NC(=O)c3ccco3)c(C#N)c3nc4ccccc4nc32)cc1` [MLS000079925] the figure was 16.1 µM; with `Cc1cc2n(c1)CCn1c(C)ccc1-2` [MLS000104384], 12.6 µM. Same read-out and setting: the value for `Cc1ccc(C)n1-c1ccc(N2CCOCC2)cc1` [MLS000111760] was 11.4 µM; that for `Clc1nc(NCc2cccnc2)nc(N2CCOCC2)n1` [MLS000121154] was 30.8 µM. On the same count and under the same terms, with `CCOC(=O)C(=Cc1cccc(O)c1)c1nc2sc(C)c(C)c2c(=O)[nH]1` [MLS000393989] the figure was 9.56 µM; with `S=c1[nH]cc(-c2ccccc2)n1-c1ccccc1Cl` [MLS000417182], 2.23 µM.

Still in this test, the particulars now being: pH 7.4; 4 °C.
With `Cc1cc(N)ccc1N1CCCC1` [3-methyl-4-(1-pyrrolidinyl)aniline;hydrochloride], the response was half-maximal at 7.93 µM (EC50). Same read-out and setting: with `CNC(CC(=O)c1ccc([N+](=O)[O-])cc1)C(Cl)(Cl)Cl` (stereo unspecified) [4,4,4-Trichloro-3-methylamino-1-(4-nitro-phenyl)-butan-1-one] the figure was 0.47 µM; with `COc1cc(C2Nc3cccc4cccc(c34)N2)cc(OC)c1O` [4-(2,3-dihydro-1H-perimidin-2-yl)-2,6-dimethoxyphenol], 1.73 µM. Consider `C=CS(=O)(=O)c1sc(Cl)c(N2CCOCC2)c1[N+](=O)[O-]` [4-(2-chloranyl-5-ethenylsulfonyl-4-nitro-thiophen-3-yl)morpholine], for which the EC50 worked out at 5.46 µM. As to `Cc1ccc(-c2c3c([nH]c(=S)c2C#N)CCCC3)o1` [4-(5-methylfuran-2-yl)-2-sulfanylidene-5,6,7,8-tetrahydro-1H-quinoline-3-carbonitrile], the EC50 was found to be 8.21 µM. Same read-out and setting: the value for `CCN(CC)c1ccc(Nc2nc(N3CCOCC3)c3ccccc3n2)cc1` [4-N,4-N-diethyl-1-N-(4-morpholin-4-ylquinazolin-2-yl)benzene-1,4-diamine] was 9 µM; that for `CCOc1cccc(CNc2ccc(O)cc2)c1OCc1ccc(Cl)cc1` [4-[[2-[(4-chlorophenyl)methoxy]-3-ethoxyphenyl]methylamino]phenol] was 2.8 µM. The same measure, in the same setting: the value for `CNc1ccc(Br)cc(C(=O)/C=C/c2cccc(OC)c2OC)c1=O` [4-bromanyl-2-[(E)-3-(2,3-dimethoxyphenyl)prop-2-enoyl]-7-(methylamino)cyclohepta-2,4,6-trien-1-one] was 8.38 µM; that for `CN(C)c1ccc(C=C2C(=O)NC(=O)NC2=O)cc1[N+](=O)[O-]` [5-[[4-(dimethylamino)-3-nitrophenyl]methylidene]-1,3-diazinane-2,4,6-trione] was 4.67 µM.

Compound `Cc1ccc(-c2nc3c(c(=O)[nH]c(=O)n3Cc3ccccc3)n2C)o1` [7-methyl-8-(5-methyl-2-furanyl)-3-(phenylmethyl)purine-2,6-dione] had a half-maximal effective concentration (EC50) of 1.94 µM.

`COc1cc(/C=C2\CC/C(=C\c3cc(OC)c(O)c(OC)c3)C2=O)cc(OC)c1O` [(2E,5E)-2,5-bis[(4-hydroxy-3,5-dimethoxyphenyl)methylidene]cyclopentan-1-one]: it took 3.9 µM to reach a half-maximal effect (EC50). Compared with the last compound, the EC50 is about 2-fold higher. The same measure, in the same setting: with `O=C1/C(=C\c2ccc(-c3ccccc3Cl)o2)SC(=S)N1CC1CCCO1` (stereo unspecified) [(5E)-5-[[5-(2-chlorophenyl)furan-2-yl]methylidene]-3-(oxolan-2-ylmethyl)-2-sulfanylidene-1,3-thiazolidin-4-one] the figure was 2.6 µM; with `Fc1ccc(C=C2CCCC3C2=NC(=S)NC3c2ccc(F)cc2)cc1` (stereo unspecified) [(8E)-4-(4-fluorophenyl)-8-[(4-fluorophenyl)methylidene]-1,3,4,5,6,7-hexahydroquinazoline-2-thione], 6.65 µM. Same read-out and setting: with `CN1CCc2cccc3c2[C@H]1Cc1ccc(O)c(O)c1-3` [APOMORPHINE HYDROCHLORIDE] the figure was 46.4 µM. Still for that read-out and setting: the value for `Cc1ccc(-c2cc(-c3ccc(F)cc3)nc(N)c2C#N)o1` [MLS000082831] was 2.44 µM; that for `CCOC(=O)C1CCN(C(=O)Nc2ccc3nc(-c4ccco4)c(-c4ccco4)nc3c2)CC1` [MLS000113285] was 1.18 µM; that for `Clc1ccc2c(N=NCc3ccccc3Br)ccnc2c1` [MLS000336087] was 12.2 µM.

`O=[N+]([O-])c1ccc(N=NCc2ccc(O)c(O)c2O)c(S(=O)(=O)N2CCOCC2)c1` [MLS000336720] displayed an EC50 of 4.48 µM. Against the preceding compound, the EC50 is about 2.7-fold lower. With `O=[N+]([O-])c1ccc(N2CCN(c3ccc(O)cc3)CC2)c(Cl)c1` [MLS000374649], the 50% effective concentration (EC50) amounted to 1.77 µM. The same measure, in the same setting: with `Cc1ccc(NC2=C(NC(=O)c3ccccc3)C(=O)c3ccccc3C2=O)cc1Cl` [MLS000392290] the figure was 2.31 µM.
